Experiments:
[1] = tested on: bacterial collagenase (clostridium histolyticum); assay: Collagenase inhibition on FITC-marked gelatin; type: biochemical; conditions: Conc. [w/v] 0.3; 60 mins. at 20° C.
Procedure: In the event of inflammation, skin proteases, for example collagenase, are released from the polymorphonuclear neutrophilic granulocytes or macrophages. A similar process takes place in the skin of elderly people on exposure to UV rays. As already mentioned, the proteases—also known as matrix metalloproteases (MMPs) through their content of central zinc ions—catalyze the fragmentation of connective tissue proteins. The test substances were tested for collagenase inhibition using bacterial collagenase (clostridium histolyticum) on gelatin marked with fluorochromium (FITC, Calbiochem) as a natural nutrient medium. The incubation time was 60 mins. at 20° C.; the hydrolysis of the substrate was monitored by fluorescence at 393 nm (excitation at 328 nm). The results are set out in Table 6 as the collagenase inhibition in %.

human fibroblasts [2] = assay: Anti-stress effect on UV-A-damaged fibroblasts; type: cell-based; conditions: conc. 0.001 % w/v, + UV-A 20 J/cm^2; for Cell proteins: blank sample = 100; for GSH/proteins: blank sample = 100, blank + UV-A = 65
Procedure: UV-A radiation in the 320 to 400 nm range induces oxidative stress which is mainly produced by the activation of photosensitive biological components which in turn catalyze the formation of ROS-like superoxide anions, hydrogen peroxide and singlet oxygen atoms. The anti-UV-A effect was tested on fibroblasts because UV-A radiation penetrates through the dermis where it causes oxidative damage by lipoperoxidation of the cell membrane and a reduction in the content of reduced glutathione (GHS). To this end, human fibroblasts were cultivated as described in a), exposed to UV-A rays (20 J/cm^2) and the cell counts and the GSH content subsequently determined. The results are set out in Table 3, where they are expressed in %-rel. against a blank sample, and represent the results of 3 series of measurements with triple determination.

human fibroblasts [3] = assay: Regenerative effect and detoxifying potential: GSH in human fibroblasts; type: cell-based; conditions: conc. 0.001 % w/v; 3 days in test solution; against blank sample = 100
Procedure: Glutathione (GSH) is a special protein which is produced by the cells for protection against oxidative stress and environmental poisons, more particularly against heavy metals. The three amino acids involved in the reduced form of GSH are linked to special cytoplasmatic enzymes which need ATP for activation. An increase in the GSH concentration leads to an increase in the glutatione-S-transferase activity, a detoxifying enzyme. The stimulation for detoxification by the test substances was tested on human fibroblasts by measurement of the GSH. In a series of tests, fibroblasts were first incubated for 3 days at 37° C. in a nutrient solution and then for 3 days at the same temperature in a test solution. The protein content in the cells was then determined by the Bradford method and the GSH concentration by the Hissin method [cf. Analytical Biochem. 74, 214-226 1977]. The results are set out in Table 2, where they are expressed in %-rel. against a blank sample, and represent the results of 3 series of measurements with triple determination.

[4] = tested on: Staphylococcus epidermidis; assay: Agar diffusion method, inhibition zones; type: cell-based; conditions: filter paper with 20 μl test substance; 18 to 24 h at 37° C.
Procedure: (§1) The antibacterial activity of the test substances was tested by the diffusion method on agar plates or the agar dilution method. In this method, a round filter paper of defined diameter is first impregnated with the test solution and then applied to the surface of an agar plate inoculated beforehand with the test microorganisms. The size of the inhibition zones is then determined after defined times. In particular, it is possible by this method to determine the MIC (Minimum Inhibitory Concentration) as the lowest concentration of test substance with which complete inhibition of the microorganisms can be obtained.
(§2) Agar diffusion method. The inoculum was prepared using a fresh culture in a stationary growth phase (after ca. 18-24 h) in a BHI solution (brain-heart Infusion). The bacterial suspension was adjusted to 0.5 MacFarland units, corresponding to 1.5 10^8 colony-forming units (cfu)/ml; the suspension was then diluted with a sodium chloride solution (1:100) to adjust a value of 1.5 10^6 cfu/ml. Mueller-Hinton agar (Staphylococcus epidermidis, Staphylococcus aureus) and Wilkins-Chalgrens agar containing 5% by weight sheep's blood (Propionibacterium acnes) were then sterilized for 15 mins. at 121° C. and then placed in Petri dishes. 2 to 4 ml of the bacterial suspension were then added to the Petri dishes, followed by drying at room temperature. The filter papers were impregnated with 20 μl of the test substances and applied to the surface of the agar plates. The inoculated Petri dishes were incubated for 18 to 24 h at 37° C. (the Petri dishes containing Propionibacterium acnes under anaerobic conditions) and the antimicrobial activity was then determined by determination of the growth inhibition zones. The results are set out in Table 10 and represent the diameters of the inhibition zones in mm.

Staphylococcus aureus [5] = assay: Agar diffusion method, inhibition zones; type: cell-based; conditions: filter paper with 20 μl test substance; 18 to 24 h at 37° C.
Procedure: as §1, §2

Propionibacterium acnes [6] = assay: Agar diffusion method, inhibition zones; type: cell-based; conditions: filter paper with 20 μl test substance; 18 to 24 h at 37° C., anaerobic
Procedure: as §1, §2

[7] = tested on: melanocytes (B16 cell line); assay: Inhibition of melanin synthesis in B16 melanocytes; type: cell-based; conditions: 3 days, blank value = 100
Procedure: Melanin is the pigment responsible for the color of the skin and hair. It is formed in special organelles, the melanosomes, which occur in the melanocytes of the basal layer of the human epidermis. The biosynthesis of melanin begins with the amino acid tyrosine which is oxidized to DOPA (dihydroxyphenylalanine) in the presence of tyrosinase. The DOPA then polymerizes to melanin. […] After incubation for 3 days at 37° C./5% CO2, the nutrient medium was replaced by a solution containing the test substances in various concentrations. After incubation for another 3 days, the cell protein content (Bradford's method) and the content of synthesized melanin were determined through the optical density of the homogenizate at 475 nm. The results are expressed in % against a blank value and are set out in Table 7.

[8] = tested on: Staphylococcus epidermidis; assay: Agar dilution method (MIC determination); type: cell-based; conditions: 18 to 24 h at 37° C.
Procedure: as §1, with “obtained. Agar dilution method (MIC determination). Various agars were prepared as described above, test substances were added in various concentrations, homogenized and dried. The Petri dishes were then inoculated with quantities of 2 μl of the bacterial suspension. After each drying step the Petri dishes were incubated for 18 to 24 h at 37° C. […] The results represent the averages of double determinations.” for “obtained.”

Staphylococcus aureus [9] = assay: Agar dilution method (MIC determination); type: cell-based; conditions: 18 to 24 h at 37° C.
Procedure: as §1, with “obtained. Agar dilution method (MIC determination). Various agars were prepared as described above, test substances were added in various concentrations, homogenized and dried. The Petri dishes were then inoculated with quantities of 2 μl of the bacterial suspension. After each drying step the Petri dishes were incubated for 18 to 24 h at 37° C. […] The results represent the averages of double determinations.” for “obtained.”

Propionibacterium acnes [10] = assay: Agar dilution method (MIC determination); type: cell-based; conditions: 18 to 24 h at 37° C.
Procedure: as §1, with “obtained. Agar dilution method (MIC determination). Various agars were prepared as described above, test substances were added in various concentrations, homogenized and dried. The Petri dishes were then inoculated with quantities of 2 μl of the bacterial suspension. After each drying step the Petri dishes were incubated for 18 to 24 h at 37° C. […] The results represent the averages of double determinations.” for “obtained.”

Row | Substance | Collagenase inhibition [1] | Cell proteins (human fibroblasts [2]) | GSH/proteins (human fibroblasts [2]) | GSH/proteins (human fibroblasts [3]) | Inhibition zones, Staphylococcus epidermidis [4] | Inhibition zones, Staphylococcus aureus (Staphylococcus aureus [5]) | Inhibition zones, Propionibacterium acnes (Propionibacterium acnes [6]) | Cell melanin ([7]; conc. 0.001 % w/v) | Cell proteins ([7]; conc. 0.001 % w/v) | Cell melanin ([7]; conc. 0.003 % w/v) | Cell proteins ([7]; conc. 0.003 % w/v) | MIC, Staphylococcus epidermidis [8] | MIC, Staphylococcus aureus (Staphylococcus aureus [9]) | MIC, Propionibacterium acnes (Propionibacterium acnes [10])
1 | Trehalose palmitate | 9 %-rel. | 124 %-rel. | 87 %-rel. | 125 %-rel. | 11 mm | 14 mm | 0 mm |  |  |  |  |  |  | 
2 | Trehalose stearate |  | 124 %-rel. | 84 %-rel. | 141 %-rel. | 11 mm | 12 mm | 0 mm | 81 %-rel. | 97 %-rel. | 41 %-rel. | 93 %-rel. | 625 µg/mL | >10000 µg/mL | 1250 µg/mL

From US20050220726A1, “Use of sugar esters in cosmetic and/or pharmaceutical preparations” (priority 2003, published 2005)
